A melting point compilation (Tetko et al.; mined from patent text by program, amines drawn as free bases though some values may be those of a salt)

SMILES	melting point [°C]
COc1cccc2c(CBr)coc12	91 to 93.5
CCCCCCCCCCCCCCCCCCOC(=O)C(N)Cc1ccc(N)cc1 (centres undefined)	54 to 56
O=C(O)C1=Cc2cc(Cl)c(Oc3ccccc3Cl)cc2OC1C(F)(F)F (centres undefined)	199
CCC1C(C)=NN=C(c2ccc(OC)c(O)c2)c2cc(O)c(OC)cc21 (centres undefined)	143 to 145
CCC(=O)C1(O)CC=C2CC3C4C=CC(O)C5OC1=C2C45CCN3C (centres undefined)	85 to 86
O=Cc1ccc(-c2ccc(-c3cn([C@H]4CN5CCC4CC5)nn3)cc2)s1	228
CCOP(=O)(OCC)C(Nc1nccs1)P(=O)(OCC)OCC	103 to 104
COc1cc(C=O)ccc1OCC(=O)c1cc(C(C)(C)C)c(O)c(C(C)(C)C)c1	99 to 100
Cc1ccc(Br)c(C)c1C(O)=S	98 to 103
COc1nc(Br)nc(OC)n1	118 to 120
Nc1c(SC(F)(F)F)c(C(=O)NC2CC2)nn1-c1c(Cl)cc(C(F)(F)F)cc1Cl	193
COc1ccc(CC(C)NCC(O)c2cccc(F)c2)cc1 (centres undefined)	85 to 89
N#Cc1ncc(Cl)nc1C#N	89 to 90
CC(=O)OC1CSC(Sc2ccc(C#N)cc2)C(OC(C)=O)C1OC(C)=O (centres undefined)	155
OCC1Cc2c(F)ccc(Br)c2O1 (centres undefined)	40 to 43
N#Cc1cc(O)c2[nH]c(=O)oc2c1	> 220

The remaining lines, values ahead:

melting point [°C]	SMILES
170 to 171	Cc1c(N2CCN(Cc3ccccc3)C(C)(C)C2)c(F)cc2c(=O)c(C(=O)O)cn(C3CC3)c12
149	CC(C)CCNC(=O)c1ccccc1-c1ccccc1CNS(=O)(=O)c1ccc(F)cc1
221	COC(=O)c1cn(-c2ccc(C3=NOC(NC(C)=O)C3)cc2F)nn1 (centres undefined)
120 to 121	COc1ccc(CN2CC=C(/C=C/c3ccc(C#N)cc3)CC2)cc1
225	CN(C)S(=O)(=O)c1cccc(-c2cc(-c3nc(-c4ccc(C(F)(F)F)cc4)cc(C(F)(F)F)n3)ccn2)c1
127 to 129	CCOc1ccc2c(c1)C(=O)N(c1ccc3sccc3c1)C2
132 to 134	OCCCC1=NN(c2nc3ccccc3s2)C(O)(c2ccc(Cl)cc2)C1 (centres undefined)
101 to 103	Cc1ccsc1C(=O)C(=CN(C)C)c1ccccc1[N+](=O)[O-]
116 to 117	CCOC(=O)CCc1cc(-c2ccc(C)cc2)n(-c2ccc(S(N)(=O)=O)cc2)n1
153 to 156	CS(=O)(=O)c1ccccc1-c1ccc(C(=O)N2Cc3ccc(C(=O)NCc4cccnc4)n3Cc3ccccc32)cc1
184 to 186	c1ccc2c(c1)CCN(Cc1nc3ccccc3[nH]1)C2
228 to 232	COC(=O)c1cc(-c2ccc(Cl)cc2)[nH]c1Cl
179 to 181	CCCC=CCC(CC(=O)Nc1cc(Cc2n[nH]c(=O)c3ccccc23)ccc1F)C(=O)O (centres undefined)
205 to 208	Fc1ccc(-c2ccc3c(c2)C2(CCCCC2)C(=NOCc2ccccc2)N3)cc1
198 to 199	COc1cccc(C(=O)O)c1OCc1nc(-c2ccco2)oc1C
152 to 153	COCn1c(=O)n(-c2ccc3c(c2)OCO3)c2ncccc21
186 to 190	CCc1nc(NC)sc1C(=O)c1ccc(Cl)c([N+](=O)[O-])c1
109 to 113	Cc1nc(-c2ccc(C#N)cc2)sc1C(=O)N[C@H](C)[C@](O)(Cn1cncn1)c1ccc(Cl)cc1Cl
148 to 151	CN[C@H]1CCN(c2c(-c3ccccc3)c(C)c(C#N)c3nc(C(=O)N(C)C)oc23)C1
54	NCCc1ccc(-n2nc(C(F)(F)F)cc2C(F)(F)F)cc1
183 to 184	CS(=O)(=O)c1ccc(-c2cnn(Cc3ccc([N+](=O)[O-])cc3)c(=O)c2-c2ccc(F)cc2)cc1
263 to 265	CS(=O)(=O)Nc1c(-c2cc(Cl)ccc2O)c2cc(C(F)(F)F)ccc2[nH]c1=O
192 to 195	CCOc1cc2ncc(C#N)c(Nc3cccc(F)c3)c2cc1OCC
